Patent US8158587B2, “Compound having histone deacetylase-inhibiting activity, and pharmaceutical composition comprising the compound as an active ingredient” (Kyushu Institute of Technology, priority 2006, dated 2012)

Key:
human HDAC4 = biological target: T1, human HDAC4 (Homo sapiens, UniProt P56524); experiment: HDAC-inhibiting activity, coumarin-labeled acetylated histone peptide assay; format: biochemical; details: human HDAC4 from transfected 293T cells; 37° C., 30 minutes; read-out: HDAC-inhibiting activity IC50 HDAC4
T1 construct: made in house; host or cells: 293T cells (transient transfection, anti-FLAG immunoprecipitation, FLAG peptide elution)
T1 sequence (P56524 whole entry): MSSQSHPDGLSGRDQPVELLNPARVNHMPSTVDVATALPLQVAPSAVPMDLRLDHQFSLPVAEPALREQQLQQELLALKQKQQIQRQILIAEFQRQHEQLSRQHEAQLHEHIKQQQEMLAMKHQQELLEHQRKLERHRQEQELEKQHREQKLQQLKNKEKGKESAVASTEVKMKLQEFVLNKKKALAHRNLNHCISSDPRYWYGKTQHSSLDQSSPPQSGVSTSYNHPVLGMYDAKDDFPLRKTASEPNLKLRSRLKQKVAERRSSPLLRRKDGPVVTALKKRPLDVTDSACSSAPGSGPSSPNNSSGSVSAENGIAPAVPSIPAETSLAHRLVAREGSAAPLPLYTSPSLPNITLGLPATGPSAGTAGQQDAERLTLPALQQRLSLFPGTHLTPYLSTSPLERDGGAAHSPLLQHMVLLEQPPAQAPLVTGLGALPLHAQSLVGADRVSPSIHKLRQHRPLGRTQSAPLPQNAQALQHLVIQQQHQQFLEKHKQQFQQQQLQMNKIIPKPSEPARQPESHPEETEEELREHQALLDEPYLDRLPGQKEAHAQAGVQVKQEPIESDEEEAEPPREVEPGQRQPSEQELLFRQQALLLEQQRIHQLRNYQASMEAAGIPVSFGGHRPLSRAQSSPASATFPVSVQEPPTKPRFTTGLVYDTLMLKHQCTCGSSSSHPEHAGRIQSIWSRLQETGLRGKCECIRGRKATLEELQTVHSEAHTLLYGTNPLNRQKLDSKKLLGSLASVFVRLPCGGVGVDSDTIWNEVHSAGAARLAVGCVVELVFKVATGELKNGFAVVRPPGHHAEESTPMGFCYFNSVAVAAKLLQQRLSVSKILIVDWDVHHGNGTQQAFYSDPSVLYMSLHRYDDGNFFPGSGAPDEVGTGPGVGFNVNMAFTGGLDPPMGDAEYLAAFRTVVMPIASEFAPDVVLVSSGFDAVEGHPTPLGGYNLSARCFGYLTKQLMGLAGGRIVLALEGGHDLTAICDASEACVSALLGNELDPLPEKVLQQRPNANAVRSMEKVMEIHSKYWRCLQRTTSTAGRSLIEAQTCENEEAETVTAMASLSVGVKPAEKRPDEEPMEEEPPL
T1 sequence (O15379 whole entry, further chain): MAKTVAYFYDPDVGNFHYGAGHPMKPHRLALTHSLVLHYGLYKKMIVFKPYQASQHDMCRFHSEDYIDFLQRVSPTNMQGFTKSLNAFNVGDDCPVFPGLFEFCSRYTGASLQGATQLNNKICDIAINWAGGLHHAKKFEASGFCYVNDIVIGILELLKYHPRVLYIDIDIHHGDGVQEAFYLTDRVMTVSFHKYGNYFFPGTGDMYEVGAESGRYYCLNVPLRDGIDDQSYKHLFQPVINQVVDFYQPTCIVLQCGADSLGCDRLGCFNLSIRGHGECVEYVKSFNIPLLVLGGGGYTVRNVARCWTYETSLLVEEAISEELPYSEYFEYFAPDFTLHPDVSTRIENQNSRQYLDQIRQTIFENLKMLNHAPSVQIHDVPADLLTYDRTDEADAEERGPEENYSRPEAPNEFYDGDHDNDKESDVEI
Protocol: In carrying out HDAC-inhibiting activity measurements, HDAC solutions were prepared in the following manner. […] The human HDAC1 expression vector used was pcDNA3-HD1 (Yang, W. M., Yao, Y. L., Sun, […]. & Seto, E. (1997) J. Biol. Chem. 272, 28001-28007), the human HDAC4 expression vector used was pcDNA3-HD4 ([…]., Nagase, […]. Biol. Chem. 274, 11713-11720), and the murine HDAC6 expression vector used was pcDNA3-mHDA2/HDAC6 ([…]. Biol. Chem. 274, 2440-2445). After 24 hours of incubation, cells were recovered, washed with PBS, suspended in lysis buffer (50 mM Tris-HCl (pH 7.5), 120 mM NaCl, 5 mM EDTA, 0.5% Nonidet P-40), and sonicated. The supernatant was collected by centrifugation and then deprived of nonspecific proteins using Protein A/G plus agarose beads (Santa Cruz Biotechnologies, Inc.). Thereafter, anti-FLAG M2 antibody (Sigma-Aldrich Inc.) was added, and the reaction was allowed to proceed at 4° C. for 2 hours. To this were added agarose beads, the reaction was allowed to proceed at 4° C. for 3 hours, and the agarose beads were washed three times with lysis buffer and then once with HD buffer (20 mM Tris-HCl (pH 8.0), 150 mM NaCl, 10% glycerol). […] HDAC-inhibiting activity evaluation in each in vitro system was made as follows. Each test compound was dissolved in DMSO, a stock solution with a concentration of 10 mM was thus prepared and this was used as an inhibitor stock solution. The assay was carried out by incubating the HDAC solution and a coumarin-labeled acetylated histone peptide solution in the presence of the test compound at 37° C. for 30 minutes (reaction volume 20 μl). To the reaction mixture was added 30 μl of trypsin, and the aminomethylcoumarin released by the enzymatic reaction was assayed using a fluorescent plate reader. In a negative control assay, no inhibitor was added to the reaction system and the same procedure was carried out.

[1] = test system: breast cancer cell line BSY-1; experiment: Human cancer cell line panel, proliferation (sulforhodamine B); format: cell-based; details: BSY-1, 2 days of cultivation; read-out: 50% inhibitory concentration, proliferation
Excerpt: (§1) The characteristics of the human cancer cell proliferation-inhibiting activity of the compounds of the present invention were examined by the “method of evaluating the mechanisms of action of compounds using a panel of human cancer cell lines” as proposed by Yamori et al. (cf. Gan to Kagaku Ryoho (Cancer and Chemotherapy) 29 Suppl. II (2002) and Cancer Chemother. Pharmacol. 52 Suppl. I, S74-79 (2003)).
(§2) This system includes […] (7 lung cancer, 6 stomach cancer, 5 colon cancer, 5 ovarian cancer, 6 brain tumor, […], 2 kidney cancer and 2 prostate cancer cell lines as well as one melanoma line) and the method comprises measuring the in vitro drug susceptibilities of those cancer cell lines and expressing the differences in drug susceptibility among the respective cancer cell lines as a fingerprint. […] By utilizing this property, it is possible to estimate the mechanisms of action of a compound. The above method is also characterized in that an anticancer substance showing new and unique mechanisms of action different from those of the existing anticancer agents can be selected.
(§3) Cancer cells of each cell line are sowed onto a 96-well plate, a sample solution is added on the next day and, after 2 days of cultivation, the cell proliferation is measured by colorimetry using sulforhodamine B. The deviations in effective concentration for the respective cancer cell lines from the mean effective drug concentration for the 39 cancer cell lines subjected to measurement are calculated and shown in the form a fingerprint.

[2] = test system: lung cancer cell line NCI-H522; experiment: as above; format: cell-based; details: NCI-H522, 2 days of cultivation; read-out: 50% inhibitory concentration, proliferation
Excerpt: as §1, §2, §3

[3] = test system: lung cancer cell line DMS114; experiment: as above; format: cell-based; details: DMS114, 2 days of cultivation; read-out: 50% inhibitory concentration, proliferation
Excerpt: as §1, §2, §3

[4] = test system: colon cancer cell line HCT-116; experiment: as above; format: cell-based; details: HCT-116, 2 days of cultivation; read-out: 50% inhibitory concentration, proliferation
Excerpt: as §1, §2, §3

[5] = test system: ovarian cancer cell line OVCAR-8; experiment: as above; format: cell-based; details: OVCAR-8, 2 days of cultivation; read-out: 50% inhibitory concentration, proliferation
Excerpt: as §1, §2, §3

[6] = test system: prostate cancer cell line DU-145; experiment: as above; format: cell-based; details: DU-145, 2 days of cultivation; read-out: 50% inhibitory concentration, proliferation
Excerpt: as §1, §2, §3

[7] = test system: ovarian cancer cell line OVCAR-5; experiment: as above; format: cell-based; details: OVCAR-5, 2 days of cultivation; read-out: 50% inhibitory concentration, proliferation
Excerpt: as §1, §2, §3

[8] = test system: colon cancer cell line HT-29; experiment: as above; format: cell-based; details: HT-29, 2 days of cultivation; read-out: 50% inhibitory concentration, proliferation
Excerpt: as §1, §2, §3

[9] = test system: kidney cancer cell line RXF-631L; experiment: as above; format: cell-based; details: 2 days of cultivation, read-out: 50% inhibitory concentration, proliferation
Excerpt: as §1, §2, §3

[10] = test system: stomach cancer cell line MKN1; experiment: as above; format: cell-based; details: MKN1, 2 days of cultivation; read-out: 50% inhibitory concentration, proliferation
Excerpt: as §1, §2, §3

[11] = test system: brain tumor cell line SNB-75; experiment: as above; format: cell-based; details: SNB-75, 2 days of cultivation; read-out: 50% inhibitory concentration, proliferation
Excerpt: as §1, §2, §3

[12] = test system: colon cancer cell line HCC2998; experiment: as above; format: cell-based; details: HCC2998, 2 days of cultivation; read-out: 50% inhibitory concentration, proliferation
Excerpt: as §1, §2, §3

[13] = test system: lung cancer cell line NCI-H226; experiment: as above; format: cell-based; details: NCI-H226, 2 days of cultivation; read-out: 50% inhibitory concentration, proliferation
Excerpt: as §1, §2, §3

[14] = test system: lung cancer cell line A549; experiment: as above; format: cell-based; details: A549, 2 days of cultivation; read-out: 50% inhibitory concentration, proliferation
Excerpt: as §1, §2, §3

[15] = test system: lung cancer cell line NCI-H23; experiment: as above; format: cell-based; details: NCI-H23, 2 days of cultivation; read-out: 50% inhibitory concentration, proliferation
Excerpt: as §1, §2, §3

[16] = test system: lung cancer cell line NCI-H460; experiment: as above; format: cell-based; details: NCI-H460, 2 days of cultivation; read-out: 50% inhibitory concentration, proliferation
Excerpt: as §1, §2, §3

[17] = test system: melanoma cell line LOX-IMVI; experiment: as above; format: cell-based; details: 2 days of cultivation, read-out: 50% inhibitory concentration, proliferation
Excerpt: as §1, §2, §3

| IC50 (human HDAC4) [nM] | IC50 [1] [nM] | IC50 [2] [nM] | IC50 [3] [nM] | IC50 [4] [nM] | IC50 [5] [nM] | IC50 [6] [nM] | IC50 [7] [nM] | IC50 [8] [nM] | IC50 [9] [nM] | IC50 [10] [nM] | IC50 [11] [nM] | IC50 [12] [nM] | IC50 [13] [nM] | IC50 [14] [nM] | IC50 [15] [nM] | IC50 [16] [nM] | IC50 [17] [nM] | SMILES |
| --- | --- | --- | --- | --- | --- | --- | --- | --- | --- | --- | --- | --- | --- | --- | --- | --- | --- | --- |
| 25 | ≤ 100 | ≤ 10 | ≤ 100 | ≤ 100 | ≤ 100 | ≤ 100 | ≤ 100 | ≤ 100 | ≤ 100 | ≤ 100 | ≤ 100 | ≤ 100 | ≤ 100 | ≤ 100 | ≤ 100 | ≤ 100 | ≤ 100 | CC1(C)NC(=O)[C@H](CCCCCSCc2ccncc2)NC(=O)[C@H]2CCCN2C(=O)[C@H](Cc2ccccc2)NC1=O [Ky-26, cyclo(-L-Am7(4-pyridylmethyl)-Aib-L-Phe-D-Pro-)] |
| 1600 | ≤ 100 | ≤ 10 | ≤ 100 | ≤ 10 | ≤ 100 | ≤ 100 | ≤ 100 | ≤ 100 | ≤ 100 | ≤ 100 | ≤ 100 | ≤ 100 | ≤ 100 | ≤ 100 | ≤ 100 | ≤ 100 | ≤ 100 | CC(=O)CSCCCCC[C@@H]1NC(=O)[C@H]2CCCN2C(=O)[C@H](Cc2ccccc2)NC(=O)C(C)(C)NC1=O [Ky-72, cyclo(-L-Am7(acetonyl)-Aib-L-Phe-D-Pro-)] |
